Experimental findings from patent US20070191453A1, “USE OF BENZO-HETEROARYL SULFAMIDE DERIVATIVES FOR THE TREATMENT OF SUBSTANCE ABUSE AND ADDICTION” (priority 2006, published 2007) are described below.

In the experiment the test system is selectively-bred alcohol preferring rats. Description: Alcohol Preferring Rats In Vivo Model (two-bottle choice). On the set-up: species or system rat. Conditions: for 6 hr Preference (alcohol preference) / 6 hr Ethanol (alcohol intake) / 24 hr Ethanol (alcohol intake) / 24 hr Preference (alcohol preference): mean ± SEM; for 6 hr Ethanol (alcohol intake): 6 h after treatment. On the procedure: Adult male selectively-bred alcohol preferring rats (which are known in the art to be useful for the study of the effect of test compounds on voluntary alcohol intake) were grouped into three groups: vehicle and Compound #1 (50 and 100 mg/kg, p.o.). Rats were housed individually in wire mesh cages under a constant room temperature of 22±1° C. and 12:12 light-dark cycle (8:00-20:00, dark). The animals were fed Agway Prolab Rat/Mouse/Hamster 3000 formula and water ad libitum.
Alcohol intake was determined using the standard two-bottle choice method. Animals were first given free access to water in a graduated Richter tube for 2 days. Then they were given access to only a solution of 10% (v/v) ethanol for 3 consecutive days. During this period animals became accustomed to drinking from Richter tubes and to the taste and pharmacological effects of alcohol. Thereafter, they were given free access to both water and a solution of 10% alcohol for at least 4 consecutive weeks and throughout the study period. Rats had free access to food. Water and alcohol intake were recorded at 4, 6 and 24 hours after the treatment, whereas food intake was measured at 24 hour. Animals' body weight was measured every day.
After establishment of a stable baseline for alcohol, food, and water intake, rats were administered either vehicle or Compound #1 via oral gavage using a cross-over design with random assignment. To be able to compare the efficacy of these compounds on alcohol intake with an established FDA-approved drug, naltrexone, was included as a positive control. Same rats were given an oral dose of naltrexone (20 mg/kg). The interval between treatments was at least 3 days. Alcohol and water intake were recorded 4, 6 and 24 h after the drug administration and food intake was recorded at 24 hr. A total of 8-10 animals per group were used.
The results below are presented as means±SEM. Alcohol intake (g/kg) was calculated by multiplying the volume of alcohol consumed in ml by 10% and 0.7893 (ethanol density)/body weight in kg. Alcohol preference, expressed as percentage, was calculated as follows: (volume of alcohol consumed in ml/total fluid intake in ml)×100 (Rezvani and Grady, 1994; Rezvani et al., 1997). Statistical differences between drug-treated and control groups were determined by using ANOVA and Tukey Student's t test for multiple comparison.

`O=C1CC[C@@]2(O)[C@H]3Cc4ccc(O)c5c4[C@@]2(CCN3CC2CC2)[C@H]1O5` [Naltrexone, naltrexone, reference compound]: where the note is “naltrexone 20 mg/kg oral”, the “6 hr Preference (alcohol preference)” value came out at 64 ± 12%, the “6 hr Ethanol (alcohol intake)” value amounted to 0.77 ± 0.24 g/kg, the “24 hr Ethanol (alcohol intake)” value is 4.48 ± 0.57 g/kg and the “24 hr Preference (alcohol preference)” value is 76 ± 9%.
As to `NS(=O)(=O)NCc1csc2ccccc12` [Compound #1, N-(benzo[b]thien-3-ylmethyl)-sulfamide], under “50 mg/kg p.o.”, the “6 hr Preference (alcohol preference)” value is reported as 71 ± 11%, the “6 hr Ethanol (alcohol intake)” value is 1.06 ± 0.25 g/kg, the “24 hr Ethanol (alcohol intake)” value was found to be 4.48 ± 0.62 g/kg and the “24 hr Preference (alcohol preference)” value stood at 74 ± 9%. Where the note is “100 mg/kg p.o.”, the “6 hr Preference (alcohol preference)” value was determined as 67 ± 11%, the “6 hr Ethanol (alcohol intake)” value is 0.79 ± 0.24 g/kg, the “24 hr Ethanol (alcohol intake)” value stood at 4.08 ± 0.71 g/kg and the “24 hr Preference (alcohol preference)” value was 79 ± 9%. Where the note is “100 mg/kg vs naltrexone 20 mg/kg”, the “duration of reduction in ethanol consumption compared with naltrexone (in words)” value is on record as “longer lasting than naltrexone”. In addition, the “effect on ethanol consumption (in words)” value (at 6 h (50 and 100 mg/kg; p<0.05) and 24 h (100 mg/kg; p<0.05) post-dosing) is on record as “decreased ethanol consumption”.
